In patent US6017958A, “Method of treating malignant tumors with thyroxine analogues having no significant hormonal activity” (Octamer, Inc., priority 1997, dated 2000):
“And” between values parts separate entries of the source, which are not always exact repeats. Equal entries are not always repeated. Where two headings read alike, the source gives them in different places.

Experiments:
[1] = Serum half-life and bioavailability of 14C-DIME; type: in vivo, mouse
Experimental: Aliquots (50 μL) of blood were assayed in a liquid scintillation counter and data expressed as microgram-equivalents per mL. The blood level data were analyzed by the RSTRIP method (Micromath, Salt Lake City, Utah).

[2] = test system: iodine uptake into the thyroid; conditions: rats, as compared to thyroxine (Money et al., 1959); cited from earlier work
[3] = test system: E-ras transformed bovine endothelial cells; test: Morphology of E-ras cells; type: cell-based
Experimental: (§1) E-ras transformed bovine endothelial cells (Bauer et al., 1996, Intl. J. Oncology 8:239-252) were exposed to 10 μM DIME for […]. The DIME-treated cells (10^5 or 10^6 cells/100 μL) were injected subcutaneously into nude mice and tumor progression followed for 25 days.
Microscopic morphology of E-ras cells was examined by techniques reported earlier, Mendeleyev et al., 1997, "Structural Specificity and Tumoricidal Action of Methyl-3,5-Diiodo-4-(4'- Methoxyphenoxy) Benzoate (DIME)," Intl. J. Oncol.,in press; Bauer et al., 1996, "Modification of Growth Related Enzymatic Pathways and Apparent Loss of Tumorigenicity of a ras-Transformed Bovine Endothelial Cell Line" by Treatment With 5-iodo-6-amino-1,2-benzopyrone (INH BP).

[4] = test system: E-ras 20 cells (E-ras transformed bovine endothelial cells); test: Tumorigenicity of pretreated E-ras 20 cells in athymic nude mice; type: in vivo, bovine cells in nude mice; conditions: 10 μM
Experimental: as §1
Tumorigenicity of E-ras 20 Cells in athymic nude mice was assayed as described previously. Bauer et al., 1996, "Modification of growth related enzymatic pathways and apparent loss of tumorigenicity of a ras-transformed bovine endothelial cell line by treatment with 5-iodo-6-amino-1,2-benzopyrone (INH2 BP)" Intl. J. Oncol. 8:239-252. The in vivo antitumorigenic action of DIME was assayed on athymic mice inoculated with 10^6 MDA-MB-231 cells, as in the tumorgenicity assay. In about 10-14 days when subcutaneous tumors appeared, DIME treatment consisting of p.o. administration of DIME suspension (once a day) was commenced and continued for 28-32 days as reported, Kun et al., 1996, "Induction of tumor apotosis by methyl-3,5-diiodo-4-(4'-methoxyphenoxy) benzoate (DIME)", Abstract No. 102, Int. J. Oncol. 9:supplement 829.
The structural specificity of DIME and its homologs and analogs can be assessed by examining Table 7 and Table 8. We have prepared 17 novel structural analogs of DIME and compared the antitumor activity of 10 of the compounds (Table 8) which appears sufficient to draw some general conclusions. The biological assay chosen was the determination of antitumorigenic action of the drugs on the in vivo tumorigenicity of E-ras cells in nude mice, Bauer et al., 1996, "Modification of growth related enzymatic pathways and apparent loss of tumorigenicity of a ras-transformed bovine endothelial cell line by treatment with 5-iodo-6-amino-1,2-benzopyrone (INH2 BP)" Intl. J. Oncol. 8:239-252. E-ras 20 cells (10^5 or 10^6) were incubated with 10 μM DIME or analogs for 4 days, then 10^5 and 10^6 cells were inoculated subcutaneously into nude mice (5 per test) and rates of tumor formation quantitated by direct tumor volume measurements (cf. 2). […] Identical antitumorigenic tests were performed with nine DIME analogs and taking the effect of DIME as 100% (comparing tumor sizes at day 25) the antitumor efficacy was calculated as percent of DIME activity. […] Results summarized in Table 8 illustrate that substituents in R1 and R2 determine antitumor efficacy.
The efficacy of DIME analogs on in vivo tumorigenicity of Eras 20 cells i
athymic mice was compared to that of DIME (compound 1) which was taken as
100, determining the size of tumor reduction at day 25. Pretreatment with
DIME or its analogs (Table 7) was with 10 μM for 4 days prior to s.c.

[5] = test system: T47D (ductal mammary cancer); test: Cytocidal action/growth inhibition, T47D; type: cell-based; conditions: Homo sapiens, 72 h
Experimental: Seven human cancer cell lines were obtained from the American Tissue Culture Collection (Rockville, Md.) and maintained in the recommended growth media. Cells were seeded into wells (2 cm^2) at a density of 2×10^4 cells/cm^2. Various concentrations of Compounds 1-13 were added to the media at the time of seeding.
The cultures were incubated for 72 hours at 37° C. (5% CO2 atmosphere). Following incubation, cells were detached with trypsin and counted in a hemocytometer.
I100 designates the concentration at which no viable cells remained; I50 the concentration at which 50% viable cells remained, as compared to a control.
E-ras 20 cells were cultured as reported, Bauer et al., 1996, "Modification of growth related enzymatic pathways and apparent loss of tumorigenicity of a ras-transformed bovine endothelial cell line by treatment with 5-iodo-6-amino-1,2-benzopyrone (INH2 BP)" Intl. J. Oncol. 8:239-252; HT-144 (melanoma), DU-145 (prostatic cancer), HeLa (cervical cancer), HL 60 (promyelocytic leukemia), MDA-MB-231 (mammary cancer), SK-Br-3 (mammary cancer), T47D (ductal mammary cancer), A559 (lung cancer) were obtained from American Type Culture Collection (Rockville, Md.) and cultured in prescribed media. The effect of DIME was tested in cultures with a starting cell density of 2×10^4 cells per cm^2 and comparison of the effect of DIME on cell growth (intact cells identified by Trypan blue exclusion) was assayed by direct cell counting after trypsinization in a hemocytometer 72 hours after drug addition.
For DIME-exposure experiments cells were seeded into 2 cm^2 wells at a density of 2×10^4 cells/cm^2. DIME at various concentrations was added to the medium at the time of seeding. The cell cultures were then incubated for 3 days (37° C. in 5% at CO2 atmosphere).

## COC(=O)c1cc(I)c(Oc2ccc(OC)cc2)c(I)c1 [Compound 1, Methyl 3,5-diiodo-4-(4'-methoxyphenoxy)benzoate]
[1]; i.v., 24.5 mg/kg
  i.v. serum half-life (t1/2): 2 to 2.5 h
[1]; oral 126 mg/kg vs i.v. 24.5 mg/kg, listed as DIME, 126 mg/kg
  oral bioavailability: 83% and 87%
[1]; serum
  half-life (t1/2): 2 to 2.5 h
[2]
  inhibition of uptake of iodine into the thyroid: 15%
[3]; 4 μM, 18-24 hrs, E-ras 20 cells
  cell morphology: tumor cells enlarged and, as especially visible at 300-fold magnification, numerous micronuclei appeared
[3]; 10 μM, 3 days
  micronucleation: induced extensive micronucleation
[4]; 3 days pretreatment, followed 25 days
  tumorigenicity of pretreated cells: nearly completely abolished tumorigenicity
[4]; 4 days pretreatment
  tumor formation from pretreated cells (FIG. 4): tumor formation was completely abrogated
[4]; 4 days pretreatment, tumor size at day 25
  Efficacy (inhibition of E-ras 20 tumorigenicity, DIME = 100): 100%
[5]; Table 4, read-out: I50
  IC50: 700 nM
[5]; Table 4, read-out: I100 (no viable cells remained)
  IC100: 3.5 µM
[5]; day 3, Table 11, read-out: I50 (day 3)
  IC50: 700 nM
